Measured values taken from patent US8148333B2, “Stable composition comprising a PTHrP analogue” (priority 2006, dated 2012).

Columns and labels:
bacteria, yeast and mold = test: Preservative effectiveness test, screening of preservatives (Table 3); assay type: cell-based; settings: Table 3 screening
Method: Solutions were prepared containing [Glu^22,25, Leu^23,28,31, Aib29, Lys^26,31]hPTHrP(1-34)NH2 (SEQ ID NO.: 2) 2 mg/ml, acetate buffer 6 mM and water for injection, with various different preservatives added at concentrations recommended for effective antimicrobial activity. Solutions were prepared at room temperature, by dissolution of the various ingredients in water for injection, with stirring over <30 minutes to ensure complete dissolution, Solutions were filtered through 0.2 micron filter and filled into glass vials, to which a rubber stopper was applied and crimped in place to ensure complete closure.
The solution with methylparaben was less acceptable due to precipitation and inactivity immediately after manufacture of the solution. The solutions were then stored for up to 3 months at 25° C., and up to 4.5 months at 5° C. and the preservative effectiveness test repeated. as described in Example 5.

Bacteria; Yeast and mold = test: Anti-microbial effectiveness test, overall result (conformity); assay type: cell-based; settings: for preservative effectiveness results for both Bacteria and Yeasts/moulds: immediately after manufacture
[1] = Chemical stability of formulations: (SEQ ID NO.: 2) content (Table 6); assay type: physicochemical; settings: formulations of Table 6
From the text: TABLE 6 details the chemical stability of the formulations described in Example 4.

With OCc1ccccc1 [Benzyl Alcohol] the “suitability as preservative for use with SEQ ID NO.: 2 (precipitation and/or inactivity in preservative activity)” value (bacteria, yeast and mold) was “not suitable”, the “efficacy against Bacteria” value (Bacteria; Yeast and mold; after 3 and 4.5 months storage) was “not compliant” and the “preservative effectiveness results for both Bacteria and Yeasts/moulds” value (Bacteria; Yeast and mold) was “compliant”.
For COC(=O)c1ccc(O)cc1 [Methyparaben], the “suitability as preservative for use with SEQ ID NO.: 2 (precipitation and/or inactivity in preservative activity)” value (bacteria, yeast and mold) was “not suitable”.
For Oc1ccccc1 [Phenol], the “preservative efficacy for both Bacteria and Yeasts/moulds” value (Bacteria; Yeast and mold; after 3 and 4.5 months storage) was “maintained” and the “preservative effectiveness results for both Bacteria and Yeasts/moulds” value (Bacteria; Yeast and mold) was “compliant”.
With CC[C@H](C)[C@H](NC(=O)[C@H](CO)NC(=O)[C@H](CCCCN)NC(=O)CNC(=O)[C@H](CCCCN)NC(=O)[C@H](CC(=O)O)NC(=O)[C@H](Cc1cnc[nH]1)NC(=O)[C@H](CC(C)C)NC(=O)[C@H](CC(C)C)NC(=O)[C@H](CCC(N)=O)NC(=O)[C@H](Cc1cnc[nH]1)NC(=O)[C@H](CCC(=O)O)NC(=O)[C@H](CO)NC(=O)[C@@H](NC(=O)[C@H](C)N)C(C)C)C(=O)N[C@@H](CCC(N)=O)C(=O)N[C@@H](CC(=O)O)C(=O)N[C@@H](CC(C)C)C(=O)N[C@@H](CCCNC(=N)N)C(=O)N[C@@H](CCCNC(=N)N)C(=O)N[C@@H](CCCNC(=N)N)C(=O)N[C@@H](CCC(=O)O)C(=O)N[C@@H](CC(C)C)C(=O)N[C@@H](CC(C)C)C(=O)N[C@@H](CCC(=O)O)C(=O)N[C@@H](CCCCN)C(=O)N[C@@H](CC(C)C)C(=O)N[C@@H](CC(C)C)C(=O)NC(C)(C)C(=O)N[C@@H](CCCCN)C(=O)N[C@@H](CC(C)C)C(=O)N[C@@H](Cc1cnc[nH]1)C(=O)N[C@H](C(=O)N[C@@H](C)C(N)=O)[C@@H](C)O [SEQ ID NO.: 2, [Glu^22,25, Leu^23,28,31, Aib^29, Lys^26,30]hPTHrP(1-34)NH2] the “solution stability, influence of the preservative selected” value [1] was “not significantly influenced”.
